From patent publication US20200352905A1, “6-(2,4-DICHLOROPHENYL)-5-[4-[(3S)-1-(3-FLUOROPROPYL)PYRROLIDIN-3-YL]OXYPHENYL]-8,9-DIHYDRO-7H-BENZO[7]ANNULENE-2-CARBOXYLIC ACID FOR USE IN METASTATIC OR ADVANCED BREAST CANCER PATIENTS” (SANOFI, priority 2019, published 2020)

Columns and labels:
[1] = TED14856 Part B (dose expansion, 400 mg QD): safety, TEAEs; format: in vivo, human
Description: Part B: Dose expansion study to evaluate the efficacy, safety, PK and PD of compound (1) administered at the RD (from Part A). […] A BID regimen (without omission on Day 2) may also be explored if found to be needed. Safety population includes all patients exposed to at least one dose of the study treatment. Treatment emergent adverse events (TEAEs) are analyzed according to current version of the Medical Dictionary for Regulatory Activities (MedDRA) dictionary. Laboratory abnormalities are analyzed according to the NCI-CTCAE v.4.03. Type, frequency, seriousness, severity and relatedness of study treatment TEAEs is analyzed on the safety population for each dose level. Similar analyses as for the escalation phase shall be performed.

[2] = tested on: ER-positive and HER2-negative advanced breast cancer; test: TED14856 pooled population (Part A >=150 mg and Part B): post-hoc efficacy analyses and sub-populations; conditions: for Best Overall Response: Complete Response (CR), number of patients / Best Overall Response: Partial Response (PR), % of patients / Best Overall Response: Partial Response (PR), number of patients / Best Overall Response: Progressive Disease (PD), % of patients / Best Overall Response: Progressive Disease (PD), number of patients / Best Overall Response: Stable Disease (SD), % of patients / Best Overall Response: Stable Disease (SD), number of patients / Clinical Benefit Rate, % of patients / Clinical Benefit Rate, number of patients / Overall Response Rate (confirmed CR and PR), % of patients / Overall Response Rate (confirmed CR and PR), number of patients: no prior mTOR, CDK4/6, fulvestrant; for Clinical Benefit Rate (CBR): pooled population
[3] = All, pooled Part A ≥150 mg and Part B 400 mg (N = 14)
[4] = TED14856 2017-2019, pooled population n=59, setting 2-9L, prior CDK4/6, mTOR, fulvestrant allowed
[5] = TED14856 2017-2019, sub-population n=14, setting 2L+, no prior CDK4/6, mTOR, fulvestrant
[6] = TED14856 2017-2019, sub-population n=32, setting 3L, prior CDK4/6 allowed, prior mTOR not allowed, prior fulvestrant allowed
[7] = sub-population of 14 patients with neither prior targeted therapies nor SERD (3/14)

O=C(O)c1ccc2c(c1)CCCC(c1ccc(Cl)cc1Cl)=C2c1ccc(O[C@H]2CCN(CCCF)C2)cc1 [compound (1), 6-(2,4-dichlorophenyl)-5-[4-[(3S)-1-(3-fluoropropyl)pyrrolidin-3-yl]oxyphenyl]-8,9-dihydro-7H-benzo[7]annulene-2-carboxylic acid]
0 n: Patients with Gr3 TEAE: Abdominal pain ([1]; Part B, 400 mg, N=49) | Patients with Gr3 TEAE: Abdominal pain upper ([1]; Part B, 400 mg, N=49) | Patients with Gr3 TEAE: Arthralgia ([1]; Part B, 400 mg, N=49) | Patients with Gr3 TEAE: Asthenia ([1]; Part B, 400 mg, N=49) | Patients with Gr3 TEAE: Back pain ([1]; Part B, 400 mg, N=49) | Patients with Gr3 TEAE: Constipation ([1]; Part B, 400 mg, N=49) | Patients with Gr3 TEAE: Cough ([1]; Part B, 400 mg, N=49) | Patients with Gr3 TEAE: Decreased appetite ([1]; Part B, 400 mg, N=49) | Patients with Gr3 TEAE: Depression ([1]; Part B, 400 mg, N=49) | Patients with Gr3 TEAE: Diarrhoea ([1]; Part B, 400 mg, N=49) | Patients with Gr3 TEAE: Dry skin ([1]; Part B, 400 mg, N=49) | Patients with Gr3 TEAE: Dyspnoea ([1]; Part B, 400 mg, N=49) | Patients with Gr3 TEAE: Gastroesophageal reflux disease ([1]; Part B, 400 mg, N=49) | Patients with Gr3 TEAE: Headache ([1]; Part B, 400 mg, N=49) | Patients with Gr3 TEAE: Hot flush ([1]; Part B, 400 mg, N=49) | Patients with Gr3 TEAE: Hypertension ([1]; Part B, 400 mg, N=49) | Patients with Gr3 TEAE: Musculoskeletal pain ([1]; Part B, 400 mg, N=49) | Patients with Gr3 TEAE: Nasopharyngitis ([1]; Part B, 400 mg, N=49) | Patients with Gr3 TEAE: Pyrexia ([1]; Part B, 400 mg, N=49) | Patients with Gr3 TEAE: Rhinitis allergic ([1]; Part B, 400 mg, N=49) | Patients with Gr3 TEAE: Urinary tract infection ([1]; Part B, 400 mg, N=49) | Patients with related Gr3 TEAE: ALL ([1]; Part B, 400 mg, N=49) | Patients with related Gr3 TEAE: ALT increased ([1]; Part B, 400 mg, N=49) | Patients with related Gr3 TEAE: AST increased ([1]; Part B, 400 mg, N=49) | Patients with related Gr3 TEAE: Abdominal pain ([1]; Part B, 400 mg, N=49) | Patients with related Gr3 TEAE: Abdominal pain upper ([1]; Part B, 400 mg, N=49) | Patients with related Gr3 TEAE: Arthralgia ([1]; Part B, 400 mg, N=49) | Patients with related Gr3 TEAE: Asthenia ([1]; Part B, 400 mg, N=49) | Patients with related Gr3 TEAE: Back pain ([1]; Part B, 400 mg, N=49) | Patients with related Gr3 TEAE: Constipation ([1]; Part B, 400 mg, N=49) | Patients with related Gr3 TEAE: Cough ([1]; Part B, 400 mg, N=49) | Patients with related Gr3 TEAE: Decreased appetite ([1]; Part B, 400 mg, N=49) | Patients with related Gr3 TEAE: Depression ([1]; Part B, 400 mg, N=49) | Patients with related Gr3 TEAE: Diarrhoea ([1]; Part B, 400 mg, N=49) | Patients with related Gr3 TEAE: Dry skin ([1]; Part B, 400 mg, N=49) | Patients with related Gr3 TEAE: Dyspnoea ([1]; Part B, 400 mg, N=49) | Patients with related Gr3 TEAE: Fatigue ([1]; Part B, 400 mg, N=49) | Patients with related Gr3 TEAE: Gastroesophageal reflux disease ([1]; Part B, 400 mg, N=49) | Patients with related Gr3 TEAE: Headache ([1]; Part B, 400 mg, N=49) | Patients with related Gr3 TEAE: Hot flush ([1]; Part B, 400 mg, N=49) | Patients with related Gr3 TEAE: Hypertension ([1]; Part B, 400 mg, N=49) | Patients with related Gr3 TEAE: Musculoskeletal pain ([1]; Part B, 400 mg, N=49) | Patients with related Gr3 TEAE: Nasopharyngitis ([1]; Part B, 400 mg, N=49) | Patients with related Gr3 TEAE: Nausea ([1]; Part B, 400 mg, N=49) | Patients with related Gr3 TEAE: Pyrexia ([1]; Part B, 400 mg, N=49) | Patients with related Gr3 TEAE: Rhinitis allergic ([1]; Part B, 400 mg, N=49) | Patients with related Gr3 TEAE: Urinary tract infection ([1]; Part B, 400 mg, N=49) | Patients with related Gr3 TEAE: Vomiting ([1]; Part B, 400 mg, N=49) | Patients with related TEAE: ALT increased ([1]; Part B, 400 mg, N=49) | Patients with related TEAE: AST increased ([1]; Part B, 400 mg, N=49) | Patients with related TEAE: Back pain ([1]; Part B, 400 mg, N=49) | Patients with related TEAE: Headache ([1]; Part B, 400 mg, N=49) | Patients with related TEAE: Nasopharyngitis ([1]; Part B, 400 mg, N=49) | Patients with related TEAE: Pyrexia ([1]; Part B, 400 mg, N=49) | Patients with related TEAE: Rhinitis allergic ([1]; Part B, 400 mg, N=49) | Best Overall Response: Complete Response (CR), number of patients ([2]; 400 mg PART B (N = 11)) | Best Overall Response: Complete Response (CR), number of patients [2, 3] | Complete Response (CR) ([2]; pooled: All, N=59, by investigator) | Complete Response (CR) ([2]; pooled: Part A >=150 mg, N=13, by investigator) | Complete Response (CR) ([2]; pooled: Part B 400 mg, N=46, by investigator) | Complete Response (CR) ([2]; ≤3 prior lines, not both chemotherapy and CDK4/6 inhibitor, no mTOR inhibitor: All, N=32) | Complete Response (CR) ([2]; ≤3 prior lines, not both chemotherapy and CDK4/6 inhibitor, no mTOR inhibitor: Part A ≥150 mg, N=6) | Complete Response (CR) ([2]; ≤3 prior lines, not both chemotherapy and CDK4/6 inhibitor, no mTOR inhibitor: Part B 400 mg, N=26) | Best Overall Response: Complete Response (CR), number of patients ([2]; ≥150 mg PART A (N = 3)) | Best Overall Response: Partial Response (PR), number of patients ([2]; ≥150 mg PART A (N = 3)) | Overall Response Rate (confirmed CR and PR), number of patients ([2]; ≥150 mg PART A (N = 3))
2: laboratory abnormality reported as adverse event: hyperbilirubinemia ([1]; Part B, not considered related)
(54.5) %: Best Overall Response: Stable Disease (SD), % of patients ([2]; 400 mg PART B (N = 11))
6 patients: Grade 3 laboratory abnormality: AST increase ([1]; Part B)
6.8%: ORR [2, 4]
(64.3) %: Clinical Benefit Rate, % of patients [2, 3]
(21.4) %: Best Overall Response: Partial Response (PR), % of patients [2, 3] | Best Overall Response: Progressive Disease (PD), % of patients [2, 3] | Overall Response Rate (confirmed CR and PR), % of patients [2, 3]
(27.3) %: Best Overall Response: Partial Response (PR), % of patients ([2]; 400 mg PART B (N = 11)) | Overall Response Rate (confirmed CR and PR), % of patients ([2]; 400 mg PART B (N = 11))
(57.1) %: Best Overall Response: Stable Disease (SD), % of patients [2, 3]
1: laboratory abnormality reported as adverse event: alkaline phosphatase increase ([1]; Part B, not considered related) | laboratory abnormality reported as adverse event: hypercalcemia ([1]; Part B, not considered related)
3 patients: Grade 3 laboratory abnormality: bilirubin increase ([1]; Part B)
14: number of SAEs of grade ≥3 ([1]; Part B, N=49)
1 patients: Grade 3 laboratory abnormality: anemia ([1]; Part B) | Grade 3 laboratory abnormality: hypercalcemia ([1]; Part B) | Grade 3 laboratory abnormality: neutropenia ([1]; Part B) | Grade 4 laboratory abnormality: hypocalcemia ([1]; Part B) | Grade 4 laboratory abnormality: hypokalemia ([1]; Part B) | Grade 4 laboratory abnormality: hyponatremia ([1]; Part B)
66.7%: Best Overall Response: Stable Disease (SD), % of patients ([2]; ≥150 mg PART A (N = 3)) | Clinical Benefit Rate, % of patients ([2]; ≥150 mg PART A (N = 3))
(18.2) %: Best Overall Response: Progressive Disease (PD), % of patients ([2]; 400 mg PART B (N = 11))
3: laboratory abnormality reported as adverse event: increase of alanine amino transferase ([1]; Part B, not considered related) | laboratory abnormality reported as adverse event: increase of aspartate amino transferase ([1]; Part B, not considered related)
12.5%: ORR [2, 6]
3 n: Best Overall Response: Partial Response (PR), number of patients ([2]; 400 mg PART B (N = 11)) | Overall Response Rate (confirmed CR and PR), number of patients ([2]; 400 mg PART B (N = 11)) | Best Overall Response: Partial Response (PR), number of patients [2, 3] | Best Overall Response: Progressive Disease (PD), number of patients [2, 3] | Overall Response Rate (confirmed CR and PR), number of patients [2, 3]
5 patients: Grade 3 laboratory abnormality: lymphopenia ([1]; Part B)
6 n: Best Overall Response: Stable Disease (SD), number of patients ([2]; 400 mg PART B (N = 11))
32.1%: Clinical Benefit Rate (CBR) ([2]; ESR1 mutated patients (9/28))
2 n: Best Overall Response: Progressive Disease (PD), number of patients ([2]; 400 mg PART B (N = 11)) | Best Overall Response: Stable Disease (SD), number of patients ([2]; ≥150 mg PART A (N = 3)) | Clinical Benefit Rate, number of patients ([2]; ≥150 mg PART A (N = 3))
(63.6) %: Clinical Benefit Rate, % of patients ([2]; 400 mg PART B (N = 11))
4 patients: Grade 3 laboratory abnormality: ALT increase ([1]; Part B)
2 patients: Grade 3 laboratory abnormality: ALK increase ([1]; Part B) | Grade 3 laboratory abnormality: hyponatremia ([1]; Part B) | Grade 3 laboratory abnormality: hypophosphatemia ([1]; Part B)
1 n: Best Overall Response: Progressive Disease (PD), number of patients ([2]; ≥150 mg PART A (N = 3))
46.9%: CBR [2, 6]
35.6%: CBR [2, 4]
7 n: Clinical Benefit Rate, number of patients ([2]; 400 mg PART B (N = 11))
64.3%: CBR [2, 5] | CBR ([2]; sub-population of 14 patients with neither prior targeted therapies nor SERD (9/14))
9 n: Clinical Benefit Rate, number of patients [2, 3]
40.0%: Clinical Benefit Rate (CBR) ([2]; patients with wild-type ESR1 (12/30))
8 n: Best Overall Response: Stable Disease (SD), number of patients [2, 3]
no related serious adverse events: related serious adverse events ([1]; whole study)
33.3%: Best Overall Response: Progressive Disease (PD), % of patients ([2]; ≥150 mg PART A (N = 3))
21.4%: ORR [2, 5] | ORR [2, 7] | PD [2, 7] | PRs [2, 7]
